Key:
Type in all cases: physicochemical
[1] = Solubility of the solid form; conditions: Form I
pKa = test: pKa
Log P = test: Log P
Hygroscopicity = conditions: solid form, Form I

For `O=C1CCc2c(Oc3ccc4c(c3)[C@H]3[C@H](NC(=O)Nc5cc(F)c(F)cc5F)[C@H]3O4)ccnc2N1` [Compound A, 1-((1S,1aS,6bS)-5-((7-oxo-5,6,7,8-tetrahydro-1,8-naphthyridin-4-yl)oxy)-1a,6b-dihydro-1H-cyclopropa[b]benzofuran-1-yl)-3-(2,4,5-trifluorophenyl)urea], which Solubility ([1]; in dimethyl sulfoxide (DMSO) and dimethylacetamide (DMA)) is on record?
Its Solubility is “high solubility”.

What about the Solubility ([1]; in water) of the same compound?
The Solubility was “Low solubility”.

And the pKa (pKa)?
The pKa was 5.28.

And the logP (Log P)?
The logP was greater than 4.46.

And the Hygroscopicity (Hygroscopicity)?
Its Hygroscopicity is “Hygroscopic”.

From patent publication US20250090507A1, “Methods of Treating Cancer With a B-RAF Inhibitor” (MapKure, LLC, priority 2022, published 2025)
